According to patent US8614206B2 (Genentech, Inc., priority 2011, dated 2013):

Target: PIM1 (Homo sapiens (Human), UniProt P11309)
Assay: Pim kinase inhibition, PIM1 LC3K (Example 901)
Assay type: biochemical
Excerpt: Determination of the Pim kinase activity of a Formula I compound is possible by a number of direct and indirect detection methods.

Sequence of PIM1 (P11309 whole entry): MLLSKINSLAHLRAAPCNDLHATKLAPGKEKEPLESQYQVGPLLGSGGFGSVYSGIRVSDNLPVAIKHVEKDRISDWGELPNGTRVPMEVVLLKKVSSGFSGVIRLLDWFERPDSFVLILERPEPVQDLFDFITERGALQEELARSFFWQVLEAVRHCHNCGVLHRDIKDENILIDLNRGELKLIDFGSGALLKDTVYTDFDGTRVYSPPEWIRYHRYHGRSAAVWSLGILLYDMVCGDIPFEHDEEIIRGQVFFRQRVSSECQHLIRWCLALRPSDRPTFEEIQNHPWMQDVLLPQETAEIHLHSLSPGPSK

Row | SMILES | Ki [nM]
1 | Cn1ncc(NC(=O)c2nc(-c3cc(F)ccc3F)sc2N)c1N1CC[C@@H](F)[C@@H](N)CC1 [Example 266, 5-amino-N-(5-((4S,5R)-4-amino-5-fluoroazepan-1-yl)-1-methyl-1H-pyrazol-4-yl)-2-(2,5-difluorophenyl)thiazole-4-carboxamide] | 0.253
2 | Cn1ncc(NC(=O)c2nc(-c3ccccc3F)ccc2N)c1N1CCC(N)CC(F)(F)C1 (racemic) [Example 292, 3-amino-N-(5-(5-amino-3,3-difluoroazepan-1-yl)-1-methyl-1H-pyrazol-4-yl)-6-(2-fluorophenyl)picolinamide] | 0.021
3 | Cn1ncc(NC(=O)c2nc(-c3cncc(C#N)c3)sc2N)c1N1CC[C@@H](N)[C@H](F)CC1 [Example 444, 5-amino-N-[5-[(4R,5R)-4-amino-5-fluoro-azepan-1-yl]-1-methyl-pyrazol-4-yl]-2-(5-cyano-3-pyridyl)thiazole-4-carboxamide] | 35.4
4 | COC1(C)CC(N)CCN(c2c(NC(=O)c3nc(-c4ccncc4F)sc3N)cnn2C)C1 (stereo not drawn) [Example 475, 5-amino-N-[5-(5-amino-3-methoxy-3-methyl-azepan-1-yl)-1-methyl-pyrazol-4-yl]-2-(3-fluoro-4-pyridyl)thiazole-4-carboxamide] | 0.212
5 | Cc1ccc(F)c(-c2nc(C(=O)Nc3cnn(C)c3N3CC[C@@H](N)CC(F)(F)C3)c(N)s2)c1 [Example 285] | 0.018
6 | Cn1ncc(NC(=O)c2nc(-c3ccccc3F)cnc2N)c1N1CCC(N)C(F)CC1 (single isomer, unassigned) [Example 243, 3-amino-N-(5-(4-amino-5-fluoroazepan-1-yl)-1-methyl-1H-pyrazol-4-yl)-6-(2-fluorophenyl)pyrazine-2-carboxamide] | 0.123
7 | Nc1sc(-c2c(F)cccc2F)nc1C(=O)Nc1cnn(CC(F)F)c1N1CCCC[C@@H](N)C1 [Example 104, (R)-5-amino-N-(5-(3-aminoazepan-1-yl)-1-(2,2-difluoroethyl)-1H-pyrazol-4-yl)-2-(2,6-difluorophenyl)thiazole-4-carboxamide] | 0.091
8 | Cn1ncc(NC(=O)c2nc(-c3c(F)cccc3F)sc2N)c1N1CCNCC(C#N)C1 (stereo not drawn) [Example 382, 5-amino-N-[5-(6-cyano-1,4-diazepan-1-yl)-1-methyl-pyrazol-4-yl]-2-(2,6-difluorophenyl)thiazole-4-carboxamide] | 2.81
9 | COC1CCN(c2c(NC(=O)c3nc(-c4c(F)cccc4F)sc3N)cnn2C2CC2)CCC1N (single isomer, unassigned) [Example 403, 5-amino-N-[5-(4-amino-5-methoxy-azepan-1-yl)-1-cyclopropyl-pyrazol-4-yl]-2-(2,6-difluorophenyl)thiazole-4-carboxamide] | 0.21
10 | Cn1ncc(NC(=O)c2nc(-c3c(F)cccc3F)sc2N)c1N1CCC2(CNC2)C1 [Example 359, 5-amino-N-[5-(2,6-diazaspiro[3.4]octan-6-yl)-1-methyl-pyrazol-4-yl]-2-(2,6-difluorophenyl)thiazole-4-carboxamide] | 0.783
11 | Cn1ncc(NC(=O)c2nc(-c3c(F)cccc3F)sc2N)c1N1CCC(N)C2(CCO2)CC1 (single isomer, unassigned) [Example 498, 5-amino-N-[5-(5-amino-1-oxa-8-azaspiro[3.6]decan-8-yl)-1-methyl-pyrazol-4-yl]-2-(2,6-difluorophenyl)thiazole-4-carboxamide] | 0.038
12 | CCn1ncc(NC(=O)c2nc(-c3c(F)cccc3F)sc2N)c1N1CC[C@H](N)[C@H](OC)CC1 [Example 376, 5-amino-N-(5-((4S,5R)-4-amino-5-methoxyazepan-1-yl)-1-ethyl-1H-pyrazol-4-yl)-2-(2,6-difluorophenyl)thiazole-4-carboxamide] | 0.223
13 | Cn1ncc(NC(=O)c2nc(-c3c(F)cccc3F)sc2N)c1N1CCC(N)C2(CCO2)CC1 (single isomer, unassigned) [Example 501, 5-amino-N-[5-(5-amino-1-oxa-8-azaspiro[3.6]decan-8-yl)-1-methyl-pyrazol-4-yl]-2-(2,6-difluorophenyl)thiazole-4-carboxamide] | 0.025
14 | Nc1sc(-c2cc(F)ccc2F)nc1C(=O)Nc1cnn(CC(F)F)c1N1CCCC(O)CC1 (stereo not drawn) [Example 118, 5-Amino-N-(1-(2,2-difluoroethyl)-5-(4-hydroxyazepan-1-yl)-1H-pyrazol-4-yl)-2-(2,5-difluorophenyl)thiazole-4-carboxamide] | 0.292
15 | CCn1ncc(NC(=O)c2nc(-c3c(F)cccc3F)sc2N)c1N1CCC(N)C(F)CC1 (single isomer, unassigned) [Example 369, 5-amino-N-[5-(4-amino-5-fluoro-azepan-1-yl)-1-ethyl-pyrazol-4-yl]-2-(2,6-difluorophenyl)thiazole-4-carboxamide] | 0.178
16 | C[C@H]1CN(c2c(NC(=O)c3nc(-c4c(F)cccc4F)sc3N)cnn2CC(F)(F)F)CCN1 [Example 301, (S)-5-Amino-2-(2,6-difluorophenyl)-N-(5-(3-methylpiperazin-1-yl)-1-(2,2,2-trifluoroethyl)-1H-pyrazol-4-yl)thiazole-4-carboxamide] | 2.1
17 | Nc1sc(-c2c(F)cccc2F)nc1C(=O)Nc1cnn(CC2COC2)c1N1CCNCC1 [Example 251, 5-Amino-2-(2,6-difluoro-phenyl)-thiazole-4-carboxylic acid (1-oxetan-3-ylmethyl-5-piperazin-1-yl-1H-pyrazol-4-yl)-amide] | > 667

Row | SMILES | Ki [nM]
18 | Cn1ncc(NC(=O)c2nc(-c3cc(F)ccc3F)sc2N)c1N1CC[C@@H](N)CC(F)(F)C1 [Example 283, (R)-5-amino-N-(5-(5-amino-3,3-difluoroazepan-1-yl)-1-methyl-1H-pyrazol-4-yl)-2-(2,5-difluorophenyl)thiazole-4-carboxamide] | 0.008
19 | Cn1ncc(NC(=O)c2nc(-c3ccccc3F)cnc2N)c1N1CC[C@H](N)CC(F)(F)C1 [Example 247, (S)-3-amino-N-(5-(5-amino-3,3-difluoroazepan-1-yl)-1-methyl-1H-pyrazol-4-yl)-6-(2-fluorophenyl)pyrazine-2-carboxamide] | 0.01
20 | CCn1ncc(NC(=O)c2nc(-c3c(F)cccc3F)sc2N)c1N1CC[C@H](OC)[C@@H](N)CC1 [Example 364, 5-amino-N-(5-((4S,5S)-4-amino-5-methoxyazepan-1-yl)-1-ethyl-1H-pyrazol-4-yl)-2-(2,6-difluorophenyl)thiazole-4-carboxamide] | 0.247
21 | Cn1ncc(NC(=O)c2nc(-c3c(F)cccc3F)sc2N)c1N1CCC[C@H](N(CCO)CCO)CC1 [Example 336, 5-amino-N-[5-[(4S)-4-[bis(2-hydroxyethyl)amino]azepan-1-yl]-1-methyl-pyrazol-4-yl]-2-(2,6-difluorophenyl)thiazole-4-carboxamide] | 0.199
22 | Cn1ncc(NC(=O)c2nc(-c3c(F)cncc3F)sc2N)c1N1CC[C@H](N)[C@@H](F)CC1 [Example 471, 5-amino-N-[5-[(4S,5S)-4-amino-5-fluoro-azepan-1-yl]-1-methyl-pyrazol-4-yl]-2-(3,5-difluoro-4-pyridyl)thiazole-4-carboxamide] | 0.242
23 | COC1CCN(c2c(NC(=O)c3nc(-c4c(F)cccc4F)sc3N)cnn2C2CC2)CCC1N (single isomer, unassigned) [Example 404, 5-amino-N-[5-(4-amino-5-methoxy-azepan-1-yl)-1-cyclopropyl-pyrazol-4-yl]-2-(2,6-difluorophenyl)thiazole-4-carboxamide] | 0.036
24 | Cn1ncc(NC(=O)c2nc(-c3cccc(O)n3)sc2N)c1N1CCC[C@H](N)CC1 [Example 393, 5-amino-N-[5-[(4S)-4-aminoazepan-1-yl]-1-methyl-pyrazol-4-yl]-2-(6-hydroxy-2-pyridyl)thiazole-4-carboxamide] | 14
25 | Cn1ncc(NC(=O)c2nc(-c3ccccc3F)cnc2N)c1N1CC[C@@H](N)CC(F)(F)C1 (single isomer, unassigned) [Example 248] | 0.007
26 | Cc1ccc(F)c(-c2nc(C(=O)Nc3cnn(CC(F)F)c3N3CCCC(O)CC3)c(N)s2)c1 (stereo not drawn) [Example 111, 5-Amino-N-(1-(2,2-difluoroethyl)-5-(4-hydroxyazepan-1-yl)-1H-pyrazol-4-yl)-2-(2-fluoro-5-methylphenyl)thiazole-4-carboxamide] | 0.079
27 | Cn1ncc(NC(=O)c2nc(-c3ccccc3F)sc2N)c1N1CCNCC2(CCO2)C1 (racemic) [Example 477, 5-amino-2-(2-fluorophenyl)-N-[1-methyl-5-(1-oxa-6,9-diazaspiro[3.6]decan-6-yl)pyrazol-4-yl]thiazole-4-carboxamide] | 0.188
28 | Cn1ncc(NC(=O)c2nc(-c3ccnc(F)c3)sc2N)c1N1CCC[C@H](N)CC1 [Example 417, 5-amino-N-[5-[(4S)-4-aminoazepan-1-yl]-1-methyl-pyrazol-4-yl]-2-(2-fluoro-4-pyridyl)thiazole-4-carboxamide] | 2.12
29 | Cn1ncc(NC(=O)c2nc(-c3cc(F)ccc3F)sc2N)c1N1CC[C@H](N)CC(F)(F)C1 [Example 282, (S)-5-amino-N-(5-(5-amino-3,3-difluoroazepan-1-yl)-1-methyl-1H-pyrazol-4-yl)-2-(2,5-difluorophenyl)thiazole-4-carboxamide] | 0.004
30 | Cn1ncc(NC(=O)c2nc(-c3c(F)cccc3F)sc2N)c1N1CCC[C@H](NCC2COC2)CC1 [Example 342, 5-amino-2-(2,6-difluorophenyl)-N-[1-methyl-5-[(4S)-4-(oxetan-3-ylmethylamino)azepan-1-yl]pyrazol-4-yl]thiazole-4-carboxamide] | 0.075
31 | COC1CCC2(c3c(NC(=O)c4nc(-c5ccccc5F)sc4N)cnn3C)CCC1N2 (stereo not drawn) [Example 423, 5-amino-2-(2-fluorophenyl)-N-[5-(2-methoxy-8-azabicyclo[3.2.1]octan-5-yl)-1-methyl-pyrazol-4-yl]thiazole-4-carboxamide] | 0.362
32 | COC1(C)CC(N)CCN(c2c(NC(=O)c3nc(-c4c(F)cncc4F)sc3N)cnn2C)C1 (stereo not drawn) [Example 474, 5-amino-N-[5-(5-amino-3-methoxy-3-methyl-azepan-1-yl)-1-methyl-pyrazol-4-yl]-2-(3,5-difluoro-4-pyridyl)thiazole-4-carboxamide] | 0.425
33 | Cn1ncc(NC(=O)c2nc(-c3c(F)cccc3F)sc2N)c1N1CCC(N)CC(C)(F)C1 (stereo not drawn) [Example 256, 5-Amino-2-(2,6-difluoro-phenyl)-thiazole-4-carboxylic acid [5-(5-amino-3-fluoro-3-methyl-azepan-1-yl)-1-methyl-1H-pyrazol-4-yl]-amide] | 0.009
